Results reported in ChEMBL document CHEMBL4610002, “Selenium bioisosteric replacement of adenosine derivatives promoting adiponectin secretion increases the binding affinity to peroxisome proliferator-activated receptor δ” (Bioorg Med Chem, 2020).
Activity calls are given as the source filed them. The calls are words filed in the database; no cut-off is given here.

Legend:
[1] = target: T1, Peroxisome proliferator-activated receptor delta (Homo sapiens) (UniProt Q03181); experiment: Competitive binding affinity to GST-tagged human PPARdelta LBD at 30 uM incubated for 1 to 6 hrs by TR-FRET assay relative to control
T1 sequence (whole entry): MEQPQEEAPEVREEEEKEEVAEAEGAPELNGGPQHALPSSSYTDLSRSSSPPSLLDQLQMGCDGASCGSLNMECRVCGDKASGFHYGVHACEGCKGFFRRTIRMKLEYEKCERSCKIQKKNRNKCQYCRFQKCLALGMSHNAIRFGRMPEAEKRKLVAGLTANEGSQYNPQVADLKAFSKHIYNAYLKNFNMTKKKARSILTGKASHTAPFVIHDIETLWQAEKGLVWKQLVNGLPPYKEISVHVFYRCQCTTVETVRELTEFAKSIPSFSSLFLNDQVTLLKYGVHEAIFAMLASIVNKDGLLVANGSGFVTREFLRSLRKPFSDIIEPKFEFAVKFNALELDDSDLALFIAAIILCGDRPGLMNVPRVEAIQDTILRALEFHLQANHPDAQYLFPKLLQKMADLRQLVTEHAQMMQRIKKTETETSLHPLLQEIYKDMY

Homo sapiens [2] = species on record: Homo sapiens; experiment: Induction of adipogenesis in human MSC at 10 uM incubated for 5 days cotreated with IDX by ELISA; type: functional
[3] = target: T2, Peroxisome proliferator-activated receptor alpha (Homo sapiens) (UniProt Q07869); experiment: Binding affinity to GST-tagged human PPARalpha LBD up to 30 uM incubated for 2 to 6 hrs by TR-FRET assay
T2 sequence (whole entry): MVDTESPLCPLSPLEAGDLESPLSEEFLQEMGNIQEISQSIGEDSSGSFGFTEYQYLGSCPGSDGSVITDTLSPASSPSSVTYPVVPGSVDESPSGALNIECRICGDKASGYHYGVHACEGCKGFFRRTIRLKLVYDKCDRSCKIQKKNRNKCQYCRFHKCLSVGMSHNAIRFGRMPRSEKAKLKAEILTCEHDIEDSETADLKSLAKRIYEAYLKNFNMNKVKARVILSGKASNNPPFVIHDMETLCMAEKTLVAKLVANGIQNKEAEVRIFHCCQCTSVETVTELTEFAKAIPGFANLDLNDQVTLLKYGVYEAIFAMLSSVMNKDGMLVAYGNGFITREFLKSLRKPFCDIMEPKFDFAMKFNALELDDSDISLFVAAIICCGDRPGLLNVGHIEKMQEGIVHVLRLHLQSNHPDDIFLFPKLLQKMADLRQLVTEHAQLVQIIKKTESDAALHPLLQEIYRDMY

Homo sapiens [4] = species on record: Homo sapiens; experiment: Induction of adipogenesis in human MSC at 10 uM incubated for 5 days cotreated with IDX by ELISA relative to control; type: functional
[5] = target: T3, Peroxisome proliferator-activated receptor delta (Homo sapiens, UniProt Q03181); experiment: (§1) Competitive binding affinity to GST-tagged human PPARdelta LBD incubated for 1 to 6 hrs by TR-FRET assay
T3 sequence (Q03181 whole entry): T1 sequence (whole entry)

[6] = target: T1, Peroxisome proliferator-activated receptor delta (Homo sapiens); experiment: as §1
[7] = target: T4, Peroxisome proliferator-activated receptor gamma (Homo sapiens) (UniProt P37231); experiment: Competitive binding affinity to GST-tagged human PPARgamma LBD at 30 uM incubated for 1 to 6 hrs by TR-FRET assay relative to control
T4 sequence (whole entry): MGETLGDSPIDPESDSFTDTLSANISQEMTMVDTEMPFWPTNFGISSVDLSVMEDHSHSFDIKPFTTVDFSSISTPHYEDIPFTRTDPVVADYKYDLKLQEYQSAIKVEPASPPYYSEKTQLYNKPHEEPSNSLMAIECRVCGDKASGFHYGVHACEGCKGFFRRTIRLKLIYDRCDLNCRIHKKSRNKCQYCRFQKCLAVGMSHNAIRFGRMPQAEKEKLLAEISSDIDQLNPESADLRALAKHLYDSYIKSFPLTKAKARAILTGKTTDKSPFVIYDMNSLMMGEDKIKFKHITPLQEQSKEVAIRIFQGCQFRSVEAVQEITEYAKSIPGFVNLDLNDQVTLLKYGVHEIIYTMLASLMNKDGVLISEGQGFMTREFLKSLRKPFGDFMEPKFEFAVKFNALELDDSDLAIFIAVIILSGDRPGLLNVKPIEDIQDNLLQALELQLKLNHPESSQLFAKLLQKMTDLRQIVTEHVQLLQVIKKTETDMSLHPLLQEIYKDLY

Homo sapiens [8] = species on record: Homo sapiens; experiment: Induction of adipogenesis in human MSC assessed as increase in number of lipid droplets in differentiated adipocytes at 10 uM by Oil Red O staining based inverted microscopic method; type: functional, cell-based
[9] = target: T5, Peroxisome proliferator-activated receptor gamma (Homo sapiens, UniProt P37231); experiment: (§2) Competitive binding affinity to GST-tagged human PPARgamma LBD incubated for 1 to 6 hrs by TR-FRET assay
T5 sequence (P37231 whole entry): T4 sequence (whole entry)

[10] = target: T4, Peroxisome proliferator-activated receptor gamma (Homo sapiens); experiment: as §2
[11] = target: T3, Peroxisome proliferator-activated receptor delta; experiment: Antagonist at PPARdelta LBD (unknown origin) assessed as […] in recruitment of coactivator peptide C33 cotreated with PPARdelta agonist GW501516 by TR-FRET assay
Homo sapiens [12] = species on record: Homo sapiens; experiment: Induction of adipogenesis in human MSC assessed as increase in size of lipid droplets in differentiated adipocytes at 10 uM by Oil Red O staining based inverted microscopic method; type: functional, cell-based
[13] = target: T4, Peroxisome proliferator-activated receptor gamma (Homo sapiens); experiment: Partial agonist at PPARgamma LBD (unknown origin) assessed as inhibition in recruitment of coactivator peptide C33 cotreated with PPARgamma agonist troglitazone by TR-FRET assay
[14] = target: T4, Peroxisome proliferator-activated receptor gamma (Homo sapiens); experiment: Partial agonist at PPARgamma LBD (unknown origin) assessed as increase in recruitment of coactivator peptide C33 by TR-FRET assay relative to control
[15] = Induction of adipogenesis in human MSC incubated for 5 days cotreated with IDX by ELISA; type: functional
[16] = target: T3, Peroxisome proliferator-activated receptor delta; experiment: Antagonist activity at PPARdelta LBD (unknown origin) assessed as increase in recruitment of SMRT ID2 corepressor peptide by TR-FRET assay

Compound	Activity [1]	Activity (Homo sapiens [2])	Activity [3]	Activity [7]	other results
CNC(=O)[C@H]1[Se][C@@H](n2cnc3c(NCc4cccc(Br)c4)ncnc32)[C@H](O)[C@@H]1O	> 50%	Active	inactive		
CNC(=O)[C@H]1[Se][C@@H](n2cnc3c(NCc4cccc(I)c4)nc(Cl)nc32)[C@H](O)[C@@H]1O	> 50%	Active	inactive	> 50%	fold change (FC) (Homo sapiens [4]): 3.22; EC50 [5]: 14.4 nM; Activity [6]: Dose-dependent effect; Activity (Homo sapiens [8]): Active; EC50 [9]: 5.31 µM; Activity [10]: Dose-dependent effect; EC50 [11]: 5.2 µM; Activity (Homo sapiens [12]): Active; inhibition [13]: Active; Activity [14]: < 50%; EC50 [15]: 12.6 µM; EC50 [16]: 7.3 µM
CNC(=O)[C@H]1[Se][C@@H](n2cnc3c(NCc4cccc(Cl)c4)nc(Cl)nc32)[C@H](O)[C@@H]1O	> 50%	Active	inactive	Active	
CCc1ccc(CCOc2ccc(CC3SC(=O)NC3=O)cc2)nc1 (stereo unspecified) [PIOGLITAZONE]					EC50 [15]: 0.5 µM
CNC(=O)[C@H]1[Se][C@@H](n2cnc3c(NCc4cccc(F)c4)nc(Cl)nc32)[C@H](O)[C@@H]1O	> 50%	Active	inactive		
CNC(=O)[C@H]1[Se][C@@H](n2cnc3c(NCc4cccc(F)c4)ncnc32)[C@H](O)[C@@H]1O			inactive		
CNC(=O)[C@H]1[Se][C@@H](n2cnc3c(NC4CCCC4)ncnc32)[C@H](O)[C@@H]1O			inactive		
CNC(=O)[C@H]1O[C@@H](n2cnc3c(NCc4cccc(I)c4)nc(Cl)nc32)[C@H](O)[C@@H]1O [NAMODENOSON]			inactive		EC50 [5]: 191 nM; EC50 [9]: 2.94 µM; EC50 [11]: 29.8 µM; Activity [14]: < 50%; EC50 [15]: 40.6 µM
CNC(=O)[C@H]1[Se][C@@H](n2cnc3c(NCc4cccc(I)c4)ncnc32)[C@H](O)[C@@H]1O	> 50%	Active	inactive	Active	
CNC(=O)[C@H]1[Se][C@@H](n2cnc3c(NCc4ccccc4Cl)ncnc32)[C@H](O)[C@@H]1O			inactive		
CNC(=O)[C@H]1[Se][C@@H](n2cnc3c(NCc4cccc5ccccc45)ncnc32)[C@H](O)[C@@H]1O		Active	inactive	Active	
CNC(=O)[C@H]1S[C@@H](n2cnc3c(NCc4cccc(I)c4)ncnc32)[C@H](O)[C@@H]1O			inactive		
CNC(=O)[C@H]1S[C@@H](n2cnc3c(NCc4cccc(I)c4)nc(Cl)nc32)[C@H](O)[C@@H]1O			inactive		EC50 [5]: 41.1 nM; EC50 [9]: 4.64 µM; EC50 [11]: 10.7 µM; Activity [14]: < 50%; EC50 [15]: 20.8 µM; EC50 [16]: 16.7 µM
CNC(=O)[C@H]1O[C@@H](n2cnc3c(NCc4cccc(I)c4)ncnc32)[C@H](O)[C@@H]1O			inactive		
CNC(=O)[C@H]1[Se][C@@H](n2cnc3c(NCc4cccc(Br)c4)nc(Cl)nc32)[C@H](O)[C@@H]1O	> 50%	Active	inactive	Active	
